Series [1] relates to Rattus norvegicus. Put plainly: Anti-inflammatory activity in Rattus norvegicus Wistar albino (rat) assessed as carrageenan-induced paw edema at 20 mg/kg, po administered 1 hr prior to carrageenan-challenge measured at 3 hr relative to control. The format is functional.
Series [2] deals with Rattus norvegicus. Put plainly: Anti-inflammatory activity in Rattus norvegicus Wistar albino (rat) assessed as carrageenan-induced paw edema at 20 mg/kg, po administered 1 hr prior to carrageenan-challenge measured at 2 hr relative to control. It is filed as functional.
The subject of series [3] is Mus musculus. Put plainly: Analgesic activity in Mus musculus (mouse) assessed as inhibition of acetic acid-induced writhing at 15 mg/kg, po measured after 5 min for 15 min relative to control. It is filed as functional.
For series [4], the system named is Rattus norvegicus. Put plainly: Anti-inflammatory activity in Rattus norvegicus Wistar albino (rat) assessed as carrageenan-induced paw edema at 20 mg/kg, po administered 1 hr prior to carrageenan-challenge measured at 1 hr relative to control. The format is functional.
The test system of series [5] is Rattus norvegicus. Kind of series: Anti-inflammatory activity in Rattus norvegicus Wistar albino (rat) assessed as carrageenan-induced paw edema at 63.98 mg/kg, po administered 1 hr prior to carrageenan-challenge measured at 3 hr relative to control. The format is functional.
The test system of series [6] is Rattus norvegicus. Kind of series: Anti-inflammatory activity in Rattus norvegicus Wistar albino (rat) assessed as carrageenan-induced paw edema at 63.98 mg/kg, po administered 1 hr prior to carrageenan-challenge measured at 2 hr relative to control. It is filed as functional.
Series [7] is described as follows: Induction of nitric oxide release at 10^-4 M after 1 hr by Griess method relative to control. It is filed as physicochemical. As to conditions: 100 µM.
Series [8] deals with Mus musculus. Put plainly: Analgesic activity in Mus musculus (mouse) assessed as inhibition of acetic acid-induced writhing at 47.98 mg/kg, po measured after 5 min for 15 min relative to control. The format is functional.
The subject of series [9] is Rattus norvegicus. Kind of series: Anti-inflammatory activity in Rattus norvegicus Wistar albino (rat) assessed as carrageenan-induced paw edema at 63.98 mg/kg, po administered 1 hr prior to carrageenan-challenge measured at 1 hr relative to control. The format is functional.
In a further series the test system is Aorta. Kind of series: Vasorelaxant activity in normotensive Rattus norvegicus Wistar albino (rat) aorta assessed as inhibition of norepinephrine-induced contraction. It is filed as functional, tissue-based.
Series [10] relates to Mus musculus. Kind of series: Analgesic activity in Mus musculus (mouse) assessed as inhibition of acetic acid-induced writhing at 37.28 mg/kg, po measured after 5 min for 15 min relative to control. The format is functional.
The test system of series [11] is Rattus norvegicus. Kind of series: Anti-inflammatory activity in Rattus norvegicus Wistar albino (rat) assessed as carrageenan-induced paw edema at 49.7 mg/kg, po administered 1 hr prior to carrageenan-challenge measured at 2 hr relative to control. The format is functional.
Series [12] concerns Rattus norvegicus. Kind of series: Anti-inflammatory activity in Rattus norvegicus Wistar albino (rat) assessed as carrageenan-induced paw edema at 49.7 mg/kg, po administered 1 hr prior to carrageenan-challenge measured at 3 hr relative to control. The format is functional.
Series [13] relates to Rattus norvegicus. Kind of series: Gastrointestinal toxicity against Rattus norvegicus Wistar albino (rat) assessed as disruption of mucosal layer at 59.64 mg/kg po by HE-staining based […] microscopic analysis. It is filed as organism-based. Set-up: dose 59.64 mg/kg, route oral. Conditions: in vivo.
The test system of series [14] is Rattus norvegicus. Kind of series: Anti-inflammatory activity in Rattus norvegicus Wistar albino (rat) assessed as carrageenan-induced paw edema at 49.7 mg/kg, po administered 1 hr prior to carrageenan-challenge measured at 1 hr relative to control. It is filed as functional.
For series [15], the system named is Rattus norvegicus. Kind of series: Anti-inflammatory activity in Rattus norvegicus Wistar albino (rat) assessed as carrageenan-induced paw edema at 51.06 mg/kg, po administered 1 hr prior to carrageenan-challenge measured at 1 hr relative to control. The format is functional.
Series [16] concerns Mus musculus. Put plainly: Analgesic activity in Mus musculus (mouse) assessed as inhibition of acetic acid-induced writhing at 37.87 mg/kg, po measured after 5 min for 15 min relative to control. The format is functional.
For series [17], the system named is Rattus norvegicus. Put plainly: Anti-inflammatory activity in Rattus norvegicus Wistar albino (rat) assessed as carrageenan-induced paw edema at 51.06 mg/kg, po administered 1 hr prior to carrageenan-challenge measured at 2 hr relative to control. The format is functional.
Series [18] has as its system Rattus norvegicus. Kind of series: Gastrointestinal toxicity against Rattus norvegicus Wistar albino (rat) assessed as disruption of mucosal layer at 61.2 mg/kg po by HE-staining based […] microscopic analysis. It is filed as organism-based. Set-up: dose 61.2 mg/kg, route oral. As to conditions: in vivo.
The test system of series [19] is Rattus norvegicus. Put plainly: Anti-inflammatory activity in Rattus norvegicus Wistar albino (rat) assessed as carrageenan-induced paw edema at 51.06 mg/kg, po administered 1 hr prior to carrageenan-challenge measured at 3 hr relative to control. It is filed as functional.
The test system of series [20] is Rattus norvegicus. Kind of series: Gastrointestinal toxicity against Rattus norvegicus Wistar albino (rat) assessed as disruption of mucosal layer at 24 mg/kg po by HE-staining based […] microscopic analysis. It is filed as organism-based. As to conditions: in vivo. Set-up: dose 24 mg/kg, route oral.
Series [21] concerns Mus musculus. Put plainly: Analgesic activity in Mus musculus (mouse) assessed as inhibition of acetic acid-induced writhing at 49.46 mg/kg, po measured after 5 min for 15 min relative to control. It is filed as functional.
The subject of series [22] is Rattus norvegicus. Put plainly: Anti-inflammatory activity in Rattus norvegicus Wistar albino (rat) assessed as carrageenan-induced paw edema at 66.69 mg/kg, po administered 1 hr prior to carrageenan-challenge measured at 1 hr relative to control. The format is functional.
Series [23] relates to Rattus norvegicus. Put plainly: Anti-inflammatory activity in Rattus norvegicus Wistar albino (rat) assessed as carrageenan-induced paw edema at 66.69 mg/kg, po administered 1 hr prior to carrageenan-challenge measured at 3 hr relative to control. It is filed as functional.
Series [24] concerns Rattus norvegicus. Kind of series: Anti-inflammatory activity in Rattus norvegicus Wistar albino (rat) assessed as carrageenan-induced paw edema at 66.69 mg/kg, po administered 1 hr prior to carrageenan-challenge measured at 2 hr relative to control. The format is functional.
For series [25], the system named is Rattus norvegicus. Kind of series: Anti-inflammatory activity in Rattus norvegicus Wistar albino (rat) assessed as carrageenan-induced paw edema at 48.34 mg/kg, po administered 1 hr prior to carrageenan-challenge measured at 1 hr relative to control. The format is functional.
Series [26] deals with Rattus norvegicus. Put plainly: Anti-inflammatory activity in Rattus norvegicus Wistar albino (rat) assessed as carrageenan-induced paw edema at 48.34 mg/kg, po administered 1 hr prior to carrageenan-challenge measured at 3 hr relative to control. It is filed as functional.
For series [27], the system named is Mus musculus. Put plainly: Analgesic activity in Mus musculus (mouse) assessed as inhibition of acetic acid-induced writhing at 35.85 mg/kg, po measured after 5 min for 15 min relative to control. It is filed as functional.
Series [28] concerns Rattus norvegicus. Kind of series: Gastrointestinal toxicity against Rattus norvegicus Wistar albino (rat) assessed as disruption of mucosal layer at 57.96 mg/kg po by HE-staining based […] microscopic analysis. The format is organism-based. As to conditions: in vivo. Set-up: dose 57.96 mg/kg, route oral.
The test system of series [29] is Rattus norvegicus. Kind of series: Anti-inflammatory activity in Rattus norvegicus Wistar albino (rat) assessed as carrageenan-induced paw edema at 48.34 mg/kg, po administered 1 hr prior to carrageenan-challenge measured at 2 hr relative to control. The format is functional.

This passage reports inhibition in vivo, Activity and EC50 results from ChEMBL document CHEMBL3045521, “Synthesis and evaluation of anti-inflammatory, analgesic, ulcerogenicity and nitric oxide-releasing studies of novel ibuprofen analogs as nonulcerogenic derivatives” (Med Chem Res, 2011).

Values after ≈ are worked out from the molar mass of the structure shown.

As for `CC(C)Cc1ccc(C(C)C(=O)O)cc1` (stereo not given) [IBUPROFEN], the results for the inhibition in vivo at 20 mg/kg in the series on Rattus norvegicus [1], in the series with Rattus norvegicus [2] and in the series on Rattus norvegicus [4] were 62.8%, 58.2% and 53.9%, respectively. In addition, the inhibition in vivo at 15 mg/kg in the series on Mus musculus [3] was 62.4%.

With `CC(C)Cc1ccc(C(C)c2n[nH]c(=S)n2-c2ccc(C(=O)NNC(=O)CO[N+](=O)[O-])c(C(=O)NNC(=O)CO[N+](=O)[O-])c2)cc1` (stereo not given), the inhibition in vivo at 63.98 mg/kg was determined as 41.9% in the series with Rattus norvegicus [5], 40.1% in the series on Rattus norvegicus [6] and 38.8% in the series with Rattus norvegicus [9]. This compound showed an Activity in series [7] of 0.42%. Further, the inhibition in vivo at 47.98 mg/kg in the series on Mus musculus [8] was determined as 52.6%. The half-maximal effective concentration (EC50) with Aorta amounted to 38.7 µg/mL (≈ 58.6 µM).

Consider `CC(C)Cc1ccc(C(C)c2n[nH]c(=S)n2-c2ccccc2CC(=O)NNC(=O)CO[N+](=O)[O-])cc1` (stereo not given), for which the inhibition in vivo at 37.28 mg/kg in the series on Mus musculus [10] was 59%. Further, the inhibition in vivo at 49.7 mg/kg in the series on Rattus norvegicus [11] was determined as 58.8%; in the series with Rattus norvegicus [12], 62.8%; with Rattus norvegicus [14], 54.5%. The Activity in series [7] is listed as 0.35%; in the series on Rattus norvegicus [13], “Non-toxic”. Also, in the series on Aorta, the EC50 came to 55.3 µg/mL (≈ 108 µM).

For the compound `CC(C)Cc1ccc(C(C)c2n[nH]c(=S)n2-c2ccccc2CC(=O)NNC(=O)CCO[N+](=O)[O-])cc1` (stereo not given), the inhibition in vivo at 51.06 mg/kg with Rattus norvegicus [15] stood at 51.5%; in the series with Rattus norvegicus [17] it was 56.5%; in the series with Rattus norvegicus [19], 61.8%. Further, the inhibition in vivo at 37.87 mg/kg in the series on Mus musculus [16] was found to be 56.1%. Besides, the Activity in [7] is listed as 0.32%; in the series on Rattus norvegicus [18] it was “Non-toxic”. Moreover, in the series on Aorta, the EC50 worked out at 58.6 µg/mL (≈ 111 µM).

On to `O=C(O)Cc1ccccc1Nc1c(Cl)cccc1Cl` [DICLOFENAC], for which the Activity entry in the series with Rattus norvegicus [20] is on record as “Toxic”.

On to `CC(C)Cc1ccc(C(C)c2n[nH]c(=S)n2-c2ccc(C(=O)NNC(=O)CCO[N+](=O)[O-])c(C(=O)NNC(=O)CCO[N+](=O)[O-])c2)cc1` (stereo not given), for which the inhibition in vivo at 49.46 mg/kg with Mus musculus [21] turned out to be 48.6%. The inhibition in vivo at 66.69 mg/kg in the series with Rattus norvegicus [22] turned out to be 27.9%; with Rattus norvegicus [23], 31.9%; in the series on Rattus norvegicus [24], 29.9%. Further, in series [7], the Activity was determined as 0.57%. The EC50 with Aorta turned out to be 34.9 µg/mL (≈ 50.7 µM).

Regarding `CC(C)Cc1ccc(C(C)c2n[nH]c(=S)n2-c2ccc(C(=O)NNC(=O)CCO[N+](=O)[O-])cc2)cc1` (stereo not given), the inhibition in vivo at 37.28 mg/kg in the series with Mus musculus [10] was 64.8%. In addition, the inhibition in vivo at 49.7 mg/kg in the series on Rattus norvegicus [11] came out at 57.1%; with Rattus norvegicus [12], 61.8%; with Rattus norvegicus [14], 52.1%. For the same compound, the Activity in [7] was 0.39%; in the series with Rattus norvegicus [13], “Non-toxic”. In addition, the EC50 with Aorta worked out at 30.5 µg/mL (≈ 59.5 µM).

With `CC(C)Cc1ccc(C(C)c2n[nH]c(=S)n2-c2ccc(C(=O)NNC(=O)CO[N+](=O)[O-])cc2)cc1` (stereo not given), the inhibition in vivo at 48.34 mg/kg came to 52.7% with Rattus norvegicus [25], 61.2% with Rattus norvegicus [26] and 56.5% in the series on Rattus norvegicus [29]. The inhibition in vivo at 35.85 mg/kg with Mus musculus [27] was found to be 63.6%. For the same compound, the Activity entry in the series with Rattus norvegicus [28] was “Non-toxic”; in series [7] it was 0.48%. Moreover, in the series with Aorta, the half-maximal effective concentration (EC50) amounted to 42.8 µg/mL (≈ 85.8 µM).
